The values below come from ChEMBL document CHEMBL1149508, “From arylureas to biarylamides to aminoquinazolines: discovery of a novel, potent TRPV1 antagonist” (Bioorg Med Chem Lett, 2006).

The structures appear in SMILES notation. Active and inactive are the calls of the source. The calls are words filed in the database; no cut-off is given here.

The target in data set [1] is T1, Transient receptor potential cation channel subfamily V member 1 (Homo sapiens, UniProt Q8NER1). Briefly: Antagonist activity against capsaicin-activated human VR1 by FLIPR assay. It counts as functional.
T1 sequence (Q8NER1 whole entry): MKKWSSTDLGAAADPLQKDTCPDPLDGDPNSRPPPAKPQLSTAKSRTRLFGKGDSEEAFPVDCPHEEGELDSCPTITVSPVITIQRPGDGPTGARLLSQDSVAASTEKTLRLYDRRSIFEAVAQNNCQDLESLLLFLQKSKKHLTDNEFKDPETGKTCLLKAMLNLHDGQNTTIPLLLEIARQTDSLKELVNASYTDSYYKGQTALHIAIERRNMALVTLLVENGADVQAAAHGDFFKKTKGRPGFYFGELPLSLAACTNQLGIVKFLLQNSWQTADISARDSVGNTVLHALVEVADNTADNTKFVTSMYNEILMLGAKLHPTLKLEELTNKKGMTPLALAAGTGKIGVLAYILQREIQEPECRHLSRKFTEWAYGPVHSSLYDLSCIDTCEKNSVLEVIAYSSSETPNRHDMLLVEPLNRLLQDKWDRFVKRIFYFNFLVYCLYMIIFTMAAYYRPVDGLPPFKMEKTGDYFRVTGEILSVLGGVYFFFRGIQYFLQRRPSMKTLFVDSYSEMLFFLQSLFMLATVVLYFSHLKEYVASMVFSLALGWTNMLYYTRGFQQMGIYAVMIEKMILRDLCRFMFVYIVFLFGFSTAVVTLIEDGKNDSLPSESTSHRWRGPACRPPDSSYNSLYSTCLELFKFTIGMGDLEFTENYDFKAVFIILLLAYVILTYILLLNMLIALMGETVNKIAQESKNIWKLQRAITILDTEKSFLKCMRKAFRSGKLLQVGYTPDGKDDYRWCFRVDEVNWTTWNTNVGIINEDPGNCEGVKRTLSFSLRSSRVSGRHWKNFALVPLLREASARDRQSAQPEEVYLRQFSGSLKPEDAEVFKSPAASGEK
For data set [2], the target named is Transient receptor potential cation channel subfamily V member 1 (Rattus norvegicus, UniProt O35433). Briefly: Antagonist activity against low pH(5.0-5.5)-activated rat VR1. In kind it is functional.
Transient receptor potential cation channel subfamily V member 1 (Rattus norvegicus, UniProt O35433), sequence (O35433 whole entry): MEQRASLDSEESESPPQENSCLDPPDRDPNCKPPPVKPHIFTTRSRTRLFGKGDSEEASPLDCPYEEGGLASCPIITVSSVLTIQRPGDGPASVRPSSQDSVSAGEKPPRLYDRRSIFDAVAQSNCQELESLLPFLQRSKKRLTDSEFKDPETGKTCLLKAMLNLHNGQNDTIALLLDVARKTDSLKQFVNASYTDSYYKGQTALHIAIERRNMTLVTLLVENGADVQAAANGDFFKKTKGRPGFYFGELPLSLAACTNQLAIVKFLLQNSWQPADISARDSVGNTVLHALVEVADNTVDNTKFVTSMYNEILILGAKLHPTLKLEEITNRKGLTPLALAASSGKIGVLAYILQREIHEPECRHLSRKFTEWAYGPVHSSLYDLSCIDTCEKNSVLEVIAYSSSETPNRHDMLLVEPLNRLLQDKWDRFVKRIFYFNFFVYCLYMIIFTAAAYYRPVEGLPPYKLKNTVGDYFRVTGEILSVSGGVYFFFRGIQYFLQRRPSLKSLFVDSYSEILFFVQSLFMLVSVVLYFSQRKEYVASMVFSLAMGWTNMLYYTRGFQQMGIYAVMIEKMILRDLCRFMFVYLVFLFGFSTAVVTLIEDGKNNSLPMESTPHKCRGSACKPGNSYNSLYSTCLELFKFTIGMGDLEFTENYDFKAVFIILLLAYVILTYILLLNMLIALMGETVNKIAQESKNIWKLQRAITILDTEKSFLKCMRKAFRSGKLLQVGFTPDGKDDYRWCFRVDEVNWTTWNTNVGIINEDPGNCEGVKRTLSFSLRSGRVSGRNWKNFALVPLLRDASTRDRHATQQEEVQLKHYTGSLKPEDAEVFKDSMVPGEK
A short description of data set [3]: Half life in rat at 3 mg/kg, iv. It counts as ADME, organism-based. Further details: dose 3 mg/kg, route intravenous. The note with it: in vivo.
Data set [4] can be described thus: Clearance in rat at 3 mg/kg, iv. The note with it: in vivo. The arrangement: dose 3 mg/kg, route intravenous. In kind it is ADME, organism-based.
Data set [5] is described as follows: Volume of distribution in rat at 3 mg/kg, iv. It counts as ADME, organism-based. The arrangement: dose 3 mg/kg, route intravenous. The following applies: in vivo, read-out: Vdss.
Data set [6] can be described thus: Tmax in rat at 3 mg/kg, iv. It counts as ADME, organism-based. The arrangement: dose 3 mg/kg, route intravenous. The note with it: in vivo.
Data set [7] in a line: Bioavailability in rat at 3 mg/kg, iv. In kind it is ADME, organism-based. The note with it: in vivo.
In data set [8] the target is T1, Transient receptor potential cation channel subfamily V member 1. Briefly: Agonist activity at human VR1 expressed in HEK293 cells upto 4 uM. In kind it is functional, cell-based.
The nature of data set [9]: Bioavailability in rat. The following applies: in vivo. It counts as ADME, organism-based.

Take `C[C@@H]1CN(c2ncccc2C(F)(F)F)CCN1C(=O)Nc1ccc(C(F)(F)F)cc1`: the figures for the IC50 in [1] and in [2] were 17 nM and 11 nM, respectively. Also, the half-life (as a rule, the time in which the quantity being followed falls by half) in [3] was 7.2 h. Further, the clearance (in general, the volume of plasma or blood freed of the substance per unit of time) in data set [4] amounted to 39 mL/min/kg. Further, the Vd in [5] was determined as 12 L/kg. Also, the Tmax – broadly, the time at which the peak concentration occurs – in [6] came to 0.5 h. For the same compound, the bioavailability (in general, the share of a dose that reaches the circulation, judged against a reference dose that is usually intravenous) in [7] stood at 27%. Further, the result in [8] was inactive.

Regarding `CC(C)(C)c1ccc(NC(=O)c2ccc(-c3ncccc3C(F)(F)F)cc2)cc1`, the IC50 – broadly, the concentration at which inhibition is half-maximal – stood at 6 nM in data set [1] and 4 nM in [2]. The same compound registered a bioavailability in [9] of 2%.
